{"source": "patent US12258355B2", "about": "“Probes for imaging huntingtin protein” (CHDI Foundation, Inc., priority 2014, dated 2025)", "data": [{"molecular_target": "T1, Q46 protein aggregates (Homo sapiens, UniProt P42858)", "T1 construct": "fused on or other part: GST at the N-terminus, cut off with thrombin before the test to start aggregation; The wells held aggregated Q46 without GST", "T1 sequence (P42858 with tags, fused parts or gaps with the stated changes, form open)": "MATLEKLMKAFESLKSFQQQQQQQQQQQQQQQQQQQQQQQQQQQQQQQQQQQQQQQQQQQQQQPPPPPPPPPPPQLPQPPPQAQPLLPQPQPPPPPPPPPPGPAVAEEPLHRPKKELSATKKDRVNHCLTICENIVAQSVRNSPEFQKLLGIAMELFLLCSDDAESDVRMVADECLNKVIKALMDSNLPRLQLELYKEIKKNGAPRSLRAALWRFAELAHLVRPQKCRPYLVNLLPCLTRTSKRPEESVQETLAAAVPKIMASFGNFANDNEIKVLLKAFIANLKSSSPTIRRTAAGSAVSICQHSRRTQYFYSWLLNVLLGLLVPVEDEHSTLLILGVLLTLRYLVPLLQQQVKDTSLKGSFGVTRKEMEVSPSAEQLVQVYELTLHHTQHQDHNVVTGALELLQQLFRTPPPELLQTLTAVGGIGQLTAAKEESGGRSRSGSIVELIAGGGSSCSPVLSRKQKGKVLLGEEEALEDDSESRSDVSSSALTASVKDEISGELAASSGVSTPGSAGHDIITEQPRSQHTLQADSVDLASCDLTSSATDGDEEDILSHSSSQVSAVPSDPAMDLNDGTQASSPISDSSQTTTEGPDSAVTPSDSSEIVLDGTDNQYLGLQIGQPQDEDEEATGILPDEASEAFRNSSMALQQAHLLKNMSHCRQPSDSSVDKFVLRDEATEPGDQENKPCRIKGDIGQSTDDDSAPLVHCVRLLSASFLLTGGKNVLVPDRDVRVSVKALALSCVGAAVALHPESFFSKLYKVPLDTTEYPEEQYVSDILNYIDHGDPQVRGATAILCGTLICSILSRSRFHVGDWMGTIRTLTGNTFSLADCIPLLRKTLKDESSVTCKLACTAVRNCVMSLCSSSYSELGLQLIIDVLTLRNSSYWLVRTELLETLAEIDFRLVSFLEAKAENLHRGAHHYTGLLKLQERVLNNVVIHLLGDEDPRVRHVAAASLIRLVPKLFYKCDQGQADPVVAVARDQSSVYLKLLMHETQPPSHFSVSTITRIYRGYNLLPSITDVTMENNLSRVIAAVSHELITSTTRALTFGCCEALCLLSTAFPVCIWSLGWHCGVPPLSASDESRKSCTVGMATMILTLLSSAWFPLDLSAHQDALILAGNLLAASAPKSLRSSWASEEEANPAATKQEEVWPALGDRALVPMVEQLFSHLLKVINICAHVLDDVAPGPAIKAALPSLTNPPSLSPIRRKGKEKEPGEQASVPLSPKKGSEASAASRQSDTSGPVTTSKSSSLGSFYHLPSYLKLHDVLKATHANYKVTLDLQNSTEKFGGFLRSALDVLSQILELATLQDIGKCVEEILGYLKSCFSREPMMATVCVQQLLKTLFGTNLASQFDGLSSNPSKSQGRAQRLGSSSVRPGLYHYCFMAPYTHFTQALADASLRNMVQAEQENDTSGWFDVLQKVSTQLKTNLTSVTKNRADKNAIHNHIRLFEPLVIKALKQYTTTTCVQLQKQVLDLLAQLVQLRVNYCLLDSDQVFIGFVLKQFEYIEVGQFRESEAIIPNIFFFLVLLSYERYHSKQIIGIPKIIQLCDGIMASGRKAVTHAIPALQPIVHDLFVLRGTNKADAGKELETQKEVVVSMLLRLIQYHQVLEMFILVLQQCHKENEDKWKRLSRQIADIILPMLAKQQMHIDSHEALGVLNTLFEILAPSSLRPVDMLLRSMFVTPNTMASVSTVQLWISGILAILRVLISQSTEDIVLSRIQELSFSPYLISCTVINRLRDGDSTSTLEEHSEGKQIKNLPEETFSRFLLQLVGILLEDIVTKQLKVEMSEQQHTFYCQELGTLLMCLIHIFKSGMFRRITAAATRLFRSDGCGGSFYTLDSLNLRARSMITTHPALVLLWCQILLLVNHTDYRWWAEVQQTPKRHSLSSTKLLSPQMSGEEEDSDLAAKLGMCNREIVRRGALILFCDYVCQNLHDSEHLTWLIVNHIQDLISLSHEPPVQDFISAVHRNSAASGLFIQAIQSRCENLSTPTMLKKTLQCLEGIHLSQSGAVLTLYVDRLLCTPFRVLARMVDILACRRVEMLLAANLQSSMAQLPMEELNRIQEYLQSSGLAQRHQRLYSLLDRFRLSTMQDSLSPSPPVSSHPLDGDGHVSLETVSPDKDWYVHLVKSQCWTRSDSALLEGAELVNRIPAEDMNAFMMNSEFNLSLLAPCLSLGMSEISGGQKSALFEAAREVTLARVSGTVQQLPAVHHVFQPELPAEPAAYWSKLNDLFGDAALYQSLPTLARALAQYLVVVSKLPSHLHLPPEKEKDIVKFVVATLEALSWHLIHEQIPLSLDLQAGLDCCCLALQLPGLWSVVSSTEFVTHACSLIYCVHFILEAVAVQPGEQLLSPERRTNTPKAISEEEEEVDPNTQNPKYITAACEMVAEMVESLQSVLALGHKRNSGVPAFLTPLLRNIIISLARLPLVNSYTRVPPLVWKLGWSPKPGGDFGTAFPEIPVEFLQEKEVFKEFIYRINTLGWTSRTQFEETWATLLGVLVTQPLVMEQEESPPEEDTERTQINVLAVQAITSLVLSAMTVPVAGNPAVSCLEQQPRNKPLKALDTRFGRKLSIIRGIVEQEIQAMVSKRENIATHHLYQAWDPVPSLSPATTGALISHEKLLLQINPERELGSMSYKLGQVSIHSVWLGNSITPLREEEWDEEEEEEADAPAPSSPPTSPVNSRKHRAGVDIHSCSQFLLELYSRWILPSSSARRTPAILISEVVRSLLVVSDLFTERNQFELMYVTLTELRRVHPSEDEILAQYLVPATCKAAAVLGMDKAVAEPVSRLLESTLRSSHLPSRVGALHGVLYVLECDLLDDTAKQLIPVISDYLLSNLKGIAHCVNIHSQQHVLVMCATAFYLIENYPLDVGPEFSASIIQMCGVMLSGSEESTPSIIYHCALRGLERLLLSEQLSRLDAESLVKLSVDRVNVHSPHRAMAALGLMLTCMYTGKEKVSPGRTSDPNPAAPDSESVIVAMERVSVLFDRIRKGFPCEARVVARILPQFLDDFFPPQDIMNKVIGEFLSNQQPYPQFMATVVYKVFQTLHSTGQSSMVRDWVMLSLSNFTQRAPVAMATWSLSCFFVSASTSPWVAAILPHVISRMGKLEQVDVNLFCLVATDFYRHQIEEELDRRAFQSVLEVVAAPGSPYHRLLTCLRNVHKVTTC", "experiment": "Q46 radioligand binding assay (RBA)", "conditions": "10 nM ligand [3H3]MK-3328", "description": "Q46 Radioligand Binding Assay\nFor radioligand binding assays (RBA) GST-Q46 protein was generated based on a previous publication (Scherzinger et al. Cell, Vol. 90, 549-558, Aug. 8, 1997). For experiments 33 μM GST-Q46 was incubated with 150 μg/mL thrombin in assay buffer (150 mM NaCl, 50 mM Tris pH 8.0) and 2 mM CaCl2 for 16 hours at 37° C. Aggregated Q46 was pelleted by centrifugation for 5 minutes at 13,000 rpm in a bench top centrifuge and re-dissolved in the same volume of assay buffer. Test compounds were prepared by titration in DMSO at 11 concentrations from 33 μM to 1 nM. For the RBA, Q46 protein aggregates and test compounds were pre-incubated in assay buffer for 20 minutes at room temperature, in 140 μL/well in a 96-well plate (pp, round bottom). Then, ligand was added in 10 μL/well and incubated for 60 minutes at 37° C. Final assay concentrations were 1 μM to 30 pM test compound, 5 μM Q46 protein (equivalent monomer concentration) and 10 nM ligand [^3H3]MK-3328 (Harrision et al., ACS Med. Chem. Lett., 2 (2011), pp 498-502). Samples were transferred onto GF/B filter plates and washed 2× with 200 μL PBS using a Filtermate Harvester. After drying filter plates for 1 hour at 37° C., the back of the plates were sealed with foil and 30 μL/well scintillation fluid (Packard MicroScint 40) added, incubated for 15 minutes in the dark and counted in a TopCount reader. For analysis, replicate data from independent assay plates were normalized towards 0% and 100% inhibition using control wells of vehicle (0% inhibition) and 3 μM unlabelled MK-3328 (100% inhibition). IC50 values were determined with a sigmoidal inhibition model with four variables (top, bottom, slope, IC50) in a global fit using the normalized replicate data.", "units": {"IC50": "nM"}, "values": [{"smiles": "COc1ccc(COc2cnc3oc(-c4cccnc4)nc3c2)cn1", "note": "[3-{6-[(6-methoxypyridin-3-yl)methoxy]-[1,3]oxazolo[5,4-b]pyridin-2-yl}pyridine]", "IC50": "< 100"}, {"smiles": "O=C(Nc1ccc2oc(-c3ccccc3)nc2c1)c1ccccc1", "note": "[N-(2-phenyl-1,3-benzoxazol-5-yl)benzamide]", "IC50": "< 100"}, {"smiles": "COc1ccc(COc2cnc3oc(-c4cccnc4)nc3c2)nc1", "note": "[3-{6-[(5-methoxypyridin-2-yl)methoxy]-[1,3]oxazolo[5,4-b]pyridin-2-yl}pyridine]", "IC50": "< 100"}, {"smiles": "COc1ccc(-c2ccc3oc(-c4cccnc4)nc3c2)nn1", "note": "[5-(6-methoxypyridazin-3-yl)-2-(pyridin-3-yl)-1,3-benzoxazole]", "IC50": "< 100"}, {"smiles": "COc1ccc(NCc2ccc3oc(-c4cccnc4)nc3c2)nc1", "note": "[5-methoxy-N-{[2-(pyridin-3-yl)-1,3-benzoxazol-5-yl]methyl}pyridin-2-amine]", "IC50": "100 to 500"}, {"smiles": "COc1ncc(C(=O)Nc2ccc3oc(-c4cccc(C)c4)nc3c2)cn1", "note": "[2-methoxy-N-[2-(3-methylphenyl)-1,3-benzoxazol-5-yl]pyrimidine-5-carboxamide]", "IC50": "< 100"}, {"smiles": "COc1ccc(COc2ccc3oc(-c4ccncc4)nc3c2)nc1", "note": "[5-[(5-methoxypyridin-2-yl)methoxy]-2-(pyridin-4-yl)-1,3-benzoxazole]", "IC50": "< 100"}, {"smiles": "Cn1cc(COc2ccc3oc(-c4cccnc4)nc3c2)ncc1=O", "note": "[1-methyl-5-({[2-(pyridin-3-yl)-1,3-benzoxazol-5-yl]oxy}methyl)-1,2-dihydropyrazin-2-one]", "IC50": "100 to 500"}, {"smiles": "c1ccc(OCCOc2ccc3oc(-c4cccnc4)nc3c2)nc1", "note": "[5-[2-(pyridin-2-yloxy)ethoxy]-2-(pyridin-3-yl)-1,3-benzoxazole]", "IC50": "100 to 500"}, {"smiles": "O=C(Nc1ccc2oc(-c3cccnc3)nc2c1)c1cccc(OCc2ccccc2)c1", "note": "[3-(benzyloxy)-N-[2-(pyridin-3-yl)-1,3-benzoxazol-5-yl]benzamide]", "IC50": "< 100"}, {"smiles": "CSc1ccc(C(=O)Nc2ccc3oc(-c4cccnc4)nc3c2)cc1", "note": "[4-(methylsulfanyl)-N-[2-(pyridin-3-yl)-1,3-benzoxazol-5-yl]benzamide]", "IC50": "< 100"}, {"smiles": "Cn1nc(-c2nc3cc(OCc4ccc(OCCF)cn4)cnc3o2)ccc1=O", "note": "[6-(6-{[5-(2-fluoroethoxy)pyridin-2-yl]methoxy}-[1,3]oxazolo[5,4-b]pyridin-2-yl)-2-methyl-2,3-dihydropyridazin-3-one]", "IC50": "< 100"}, {"smiles": "COc1ccc(C#Cc2cnc3oc(-c4cccnc4)nc3c2)cc1", "note": "[3-{6-[2-(4-methoxyphenyl)ethynyl]-[1,3]oxazolo[5,4-b]pyridin-2-yl}pyridine]", "IC50": "< 100"}, {"smiles": "COc1ccc(COc2cnc3oc(-c4ccc(=O)n(C)n4)nc3c2)nc1", "note": "[6-{6-[(5-methoxypyridin-2-yl)methoxy]-[1,3]oxazolo[5,4-b]pyridin-2-yl}-2-methyl-2,3-dihydropyridazin-3-one]", "IC50": "< 100"}, {"smiles": "COc1ccc(COc2ccc3oc(-c4ccc(C#N)cc4)nc3c2)nc1", "note": "[4-{5-[(5-methoxypyridin-2-yl)methoxy]-1,3-benzoxazol-2-yl]benzonitrile]", "IC50": "< 100"}, {"smiles": "O=C(Nc1ccc2oc(-c3cccnc3)nc2c1)c1ccc(Oc2ccccc2)nc1", "note": "[6-phenoxy-N-[2-(pyridin-3-yl)-1,3-benzoxazol-5-yl]pyridine-3-carboxamide]", "IC50": "< 100"}, {"smiles": "O=C(Nc1ccc2oc(-c3cccnc3)nc2c1)c1ccc2occc2c1", "note": "[N-[2-(pyridin-3-yl)-1,3-benzoxazol-5-yl]-1-benzofuran-5-carboxamide]", "IC50": "< 100"}, {"smiles": "COc1ccc(COc2ccc3oc(-c4cccnc4)nc3c2)nc1", "note": "[5-[(5-methoxypyridin-2-yl)methoxy]-2-(pyridin-3-yl)-1,3-benzoxazole]", "IC50": "< 100"}, {"smiles": "O=c1cnc(COc2ccc3oc(-c4cccnc4)nc3c2)c[nH]1", "note": "[5-({[2-(pyridin-3-yl)-1,3-benzoxazol-5-yl]oxy}methyl)-1,2-dihydropyrazin-2-one]", "IC50": "100 to 500"}, {"smiles": "COc1ccc2c(=O)n(-c3ccc4oc(-c5cccnc5)nc4c3)ccc2c1", "note": "[6-methoxy-2-[2-(pyridin-3-yl)-1,3-benzoxazol-5-yl]-1,2-dihydroisoquinolin-1-one]", "IC50": "100 to 500"}, {"smiles": "CNCc1ccc(COc2ccc3oc(-c4cccnc4)nc3c2)cc1", "note": "[methyl({[4-({[2-(pyridin-3-yl)-1,3-benzoxazol-5-yl]oxy}methyl)phenyl]methyl})amine]", "IC50": "100 to 500"}, {"smiles": "COc1ccc(COc2ccc3oc(-c4cccc(C#N)c4)nc3c2)nc1", "note": "[3-{5-[(5-methoxypyridin-2-yl)methoxy]-1,3-benzoxazol-2-yl]benzonitrile]", "IC50": "< 100"}, {"smiles": "COc1ccc(C(Nc2cnc3oc(-c4cccnc4)nc3c2)C(F)(F)F)cc1", "note": "(stereo not shown) [2-(pyridin-3-yl)-N-[2,2,2-trifluoro-1-(4-methoxyphenyl)ethyl]-[1,3]oxazolo[5,4-b]pyridin-6-amine]", "IC50": "> 50"}, {"smiles": "COc1ccc(COc2ccc3oc(-c4cncc(C)c4)nc3c2)nc1", "note": "[5-[(5-methoxypyridin-2-yl)methoxy]-2-(5-methylpyridin-3-yl)-1,3-benzoxazole]", "IC50": "< 100"}, {"smiles": "COc1ccc(COc2ccc3oc(N4CCc5nc[nH]c5C4)nc3c2)nc1", "note": "[2-{3H,4H,5H,6H,7H-imidazo[4,5-c]pyridin-5-yl}-5-[(5-methoxypyridin-2-yl)methoxy]-1,3-benzoxazole]", "IC50": "< 100"}, {"smiles": "N#Cc1cnccc1-c1cc2cc(Oc3cccnc3)ccc2o1", "note": "[4-[5-(pyridin-3-yloxy)-1-benzofuran-2-yl]pyridine-3-carbonitrile]", "IC50": "< 100"}, {"smiles": "COc1ccc(C(=O)Nc2ccc3oc(-c4cccc(C)c4)nc3c2)nc1", "note": "[5-methoxy-N-[2-(3-methylphenyl)-1,3-benzoxazol-5-yl]pyridine-2-carboxamide]", "IC50": "< 100"}, {"smiles": "COc1ccc(COc2ccc3oc(-c4cc5ccccc5o4)nc3c2)nc1", "note": "[2-(1-benzofuran-2-yl)-5-[(5-methoxypyridin-2-yl)methoxy]-1,3-benzoxazole]", "IC50": "< 100"}, {"smiles": "COc1ccc(COc2cnc3oc(-c4cccnc4)nc3c2)[n+]([O-])c1", "note": "[5-methoxy-2-({[2-(pyridin-3-yl)-[1,3]oxazolo[5,4-b]pyridin-6-yl]oxy}methyl)pyridin-1-ium-1-olate]", "IC50": "< 100"}, {"smiles": "COc1cnc(COc2ccc3oc(-c4cccnc4)nc3c2)cn1", "note": "[5-[(5-methoxypyrazin-2-yl)methoxy]-2-(pyridin-3-yl)-1,3-benzoxazole]", "IC50": "< 100"}, {"smiles": "Cn1cc(COc2ccc3oc(-c4ccncc4C#N)cc3c2)cn1", "note": "[4-{5-[(1-methyl-1H-pyrazol-4-yl)methoxy]-1-benzofuran-2-yl}pyridine-3-carbonitrile]", "IC50": "< 100"}, {"smiles": "CNC(=O)c1ccc(-c2nc3cc(OCc4ccc(OC)cn4)ccc3o2)c[n+]1[O-]", "note": "[5-{5-[(5-methoxypyridin-2-yl)methoxy]-1,3-benzoxazol-2-yl}-2-(methylcarbamoyl)pyridin-1-ium-1-olate]", "IC50": "< 100"}, {"smiles": "COc1cnc2c(c1)CN(c1ccc3oc(-c4cccnc4)nc3c1)C2=O", "note": "[3-methoxy-6-[2-(pyridin-3-yl)-1,3-benzoxazol-5-yl]-5H,6H,7H-pyrrolo[3,4-b]pyridin-7-one]", "IC50": "< 100"}, {"smiles": "O=C(Nc1ccc2oc(-c3cccnc3)nc2c1)OCc1ccc(O)cn1", "note": "[(5-hydroxypyridin-2-yl)methyl N-[2-(pyridin-3-yl)-1,3-benzoxazol-5-yl]carbamate]", "IC50": "< 100"}, {"smiles": "C(#Cc1cnc2oc(-c3cccnc3)nc2c1)c1cccnc1", "note": "[3-{6-[2-(pyridin-3-yl)ethynyl]-[1,3]oxazolo[5,4-b]pyridin-2-yl}pyridine]", "IC50": "< 100"}, {"smiles": "COc1ccc(C(=O)Nc2ccc3oc(-c4cccnc4)nc3c2)nc1", "note": "[5-methoxy-N-[2-(pyridin-3-yl)-1,3-benzoxazol-5-yl]pyridine-2-carboxamide]", "IC50": "< 100"}, {"smiles": "COc1ccnc(COc2cnc3oc(-c4cccnc4)nc3c2)c1", "note": "[4-methoxy-2-({[2-(pyridin-3-yl)-[1,3]oxazolo[5,4-b]pyridin-6-yl]oxy}methyl)pyridine]", "IC50": "< 100"}, {"smiles": "COc1ccc(COc2ccc3oc(N4CCNCC4)nc3c2)nc1", "note": "[5-[(5-methoxypyridin-2-yl)methoxy]-2-(piperazin-1-yl)-1,3-benzoxazole]", "IC50": "> 50"}, {"smiles": "Cn1cc(-c2ccc(COc3cnc4oc(-c5cccnc5)nc4c3)nc2)cn1", "note": "[5-(1-methyl-1H-pyrazol-4-yl)-2-({[2-(pyridin-3-yl)-[1,3]oxazolo[5,4-b]pyridin-6-yl]oxy}methyl)pyridine]", "IC50": "< 100"}, {"smiles": "COc1ccc(COc2ccc3oc(-c4cccc(Oc5ccccc5)c4)nc3c2)nc1", "note": "[5-[(5-methoxypyridin-2-yl)methoxy]-2-(3-phenoxyphenyl)-1,3-benzoxazole]", "IC50": "< 100"}, {"smiles": "c1cncc(-c2nc3cc(Nc4nnc5ccccn45)ccc3o2)c1", "note": "[2-(pyridin-3-yl)-N-{[1,2,4]triazolo[4,3-a]pyridin-3-yl}-1,3-benzoxazol-5-amine]", "IC50": "< 100"}, {"smiles": "c1cnc(Nc2ccc3oc(-c4cccnc4)nc3c2)nc1", "note": "[2-(pyridin-3-yl)-N-(pyrimidin-2-yl)-1,3-benzoxazol-5-amine]", "IC50": "< 100"}, {"smiles": "COc1cnc(COc2ccc3oc(-c4cnn(C)c4)nc3c2)cn1", "note": "[5-[(5-methoxypyrazin-2-yl)methoxy]-2-(1-methyl-1H-pyrazol-4-yl)-1,3-benzoxazole]", "IC50": "< 100"}]}]}
